Test results reported in patent publication US7713994B2 (Wyeth LLC, priority 2005, dated 2010).
Read-outs that look alike come from different tables or passages of the source.

How the values were obtained:
[1] = system: HCT-116; assay: Cytotoxicity assay (SRB), HCT-116; assay type: cell-based; conditions: HCT116 cells, SRB, read-out: In Vitro Cellular Activity IC50 HCT116
How it was run: (§1)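 Cells seeded overnight at 37 °C, 7% CO2 (BT474 12000, HCT-116 4000, LoVo and MCF-7 6000 cells/well) in RPMI 1640 with 5% FBS, then exposed to compound dilutions for 3 days (BT474 6 days). Survival versus untreated controls by TCA fixation and SRB staining, absorbance 540 nm.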

[2] = molecular target: T1, cyclin B/CDK1 enzyme (Homo sapiens, UniProt P06493); assay: CDK1 ELISA kinase assay (phospho-Rb ser 795 detection); assay type: biochemical
T1 construct: purchased New England BioLabs; host or cells: Sf9 insect cells, recombinant baculovirus
T1 sequence (P06493 whole entry): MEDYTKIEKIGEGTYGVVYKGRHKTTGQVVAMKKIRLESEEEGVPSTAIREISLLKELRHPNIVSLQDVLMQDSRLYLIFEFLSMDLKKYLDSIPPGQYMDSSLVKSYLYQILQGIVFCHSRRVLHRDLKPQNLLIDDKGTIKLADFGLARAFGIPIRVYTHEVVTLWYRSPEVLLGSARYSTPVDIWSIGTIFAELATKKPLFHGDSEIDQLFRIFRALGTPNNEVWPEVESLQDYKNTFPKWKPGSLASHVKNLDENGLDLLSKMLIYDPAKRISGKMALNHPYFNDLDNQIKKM
T1 sequence (P14635 whole entry partner): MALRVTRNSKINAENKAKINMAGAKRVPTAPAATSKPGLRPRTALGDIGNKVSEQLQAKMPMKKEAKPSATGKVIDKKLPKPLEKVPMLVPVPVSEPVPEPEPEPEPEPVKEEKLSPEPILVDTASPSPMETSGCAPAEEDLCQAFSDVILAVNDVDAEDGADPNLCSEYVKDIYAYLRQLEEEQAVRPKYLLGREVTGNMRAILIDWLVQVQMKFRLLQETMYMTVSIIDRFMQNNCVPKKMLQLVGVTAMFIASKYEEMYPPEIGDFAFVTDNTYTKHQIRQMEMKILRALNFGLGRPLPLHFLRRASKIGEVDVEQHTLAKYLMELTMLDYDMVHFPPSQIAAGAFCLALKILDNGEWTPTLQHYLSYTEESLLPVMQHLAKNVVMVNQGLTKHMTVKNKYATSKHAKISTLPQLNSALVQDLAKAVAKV
How it was run: (§2)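 ELISA format: plate-bound GST-Rb, 200 μM ATP, Sf9 cyclin/CDK enzyme, 1 h at 30° C; then anti-pRb Ser795 primary overnight at 4° C, HRP secondary, TMB. IC50 after no-substrate background subtraction.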

[3] = molecular target: T2, cyclin D1/cdk 4 enzyme (Homo sapiens, UniProt P11802); assay: CDK4 ELISA kinase assay (phospho-Rb ser 795 detection); assay type: biochemical
T2 construct: made in house; host or cells: Sf9 insect cells, recombinant baculovirus
T2 sequence (P11802 whole entry, species assumed): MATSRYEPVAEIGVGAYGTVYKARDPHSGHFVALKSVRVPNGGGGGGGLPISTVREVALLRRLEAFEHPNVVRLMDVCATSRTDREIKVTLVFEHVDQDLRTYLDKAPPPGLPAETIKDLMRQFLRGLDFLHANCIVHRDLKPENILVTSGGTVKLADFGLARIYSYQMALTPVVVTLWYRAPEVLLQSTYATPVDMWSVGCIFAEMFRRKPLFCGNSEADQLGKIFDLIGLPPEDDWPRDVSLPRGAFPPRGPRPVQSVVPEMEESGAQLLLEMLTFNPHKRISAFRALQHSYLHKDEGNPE
T2 sequence (P24385 whole entry partner, species assumed): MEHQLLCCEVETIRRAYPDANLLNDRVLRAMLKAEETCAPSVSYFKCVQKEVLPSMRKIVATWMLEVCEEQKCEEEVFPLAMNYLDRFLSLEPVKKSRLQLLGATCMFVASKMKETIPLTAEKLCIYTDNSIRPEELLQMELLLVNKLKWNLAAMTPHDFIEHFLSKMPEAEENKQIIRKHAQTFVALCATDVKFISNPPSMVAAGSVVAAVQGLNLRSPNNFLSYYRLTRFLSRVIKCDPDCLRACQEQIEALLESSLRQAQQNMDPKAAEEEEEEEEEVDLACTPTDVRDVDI
How it was run: as §2

[4] = system: BT474; assay: Cytotoxicity assay (SRB), BT474; assay type: cell-based
How it was run: as §1

[5] = system: MCF-7; assay: Cytotoxicity assay (SRB), MCF-7; assay type: cell-based; conditions: MCF-7 cells, SRB, read-out: In Vitro Cellular Activity IC50 MCF-7
How it was run: as §1

[6] = molecular target: T3, cyclin E/CDK2 enzyme (Homo sapiens, UniProt P24941); assay: CDK2 ELISA kinase assay (phospho-Rb ser 795 detection); assay type: biochemical
T3 construct: made in house; host or cells: Sf9 insect cells, recombinant baculovirus
How it was run: as §2

[7] = system: LoVo; assay: Cytotoxicity assay (SRB), LoVo; assay type: cell-based; conditions: LoVo cells, SRB, read-out: In Vitro Cellular Activity IC50 LOVO
How it was run: as §1

[8] = In Vitro Enzyme Assay, cyclin B/CDK1, read-out: CDK1 IC50
[9] = In Vitro Enzyme Assay, cyclin D1/cdk 4, read-out: CDK4 IC50
[10] = BT474 cells, 6 days, SRB; read-out: In Vitro Cellular Activity IC50 BT474
[11] = In Vitro Enzyme Assay, cyclin E/CDK2, read-out: CDK2 IC50
[12] = Homo sapiens, HCT-116, 72 h, three days
[13] = In Vitro Enzyme Assays, read-out: CDK1 IC50
[14] = In Vitro Enzyme Assays, 200 μM ATP, read-out: CDK4 IC50
[15] = Homo sapiens, BT-474, 144 h, BT474 cells, SRB, 6 days; read-out: In Vitro Cellular Activity IC50 BT474
[16] = Homo sapiens, MCF7, 72 h, three days
[17] = In Vitro Enzyme Assays, read-out: CDK2 IC50
[18] = Homo sapiens, LoVo, 72 h, three days
[19] = Homo sapiens, HCT-116, 72 h, 3 days
[20] = Homo sapiens, BT-474, 144 h, BT474 cells, 6 days, SRB; read-out: In Vitro Cellular Activity IC50 BT474
[21] = Homo sapiens, MCF7, 72 h, 3 days
[22] = Homo sapiens, LoVo, 72 h, 3 days

Compound | IC50 [1, 12] | IC50 [2, 13] | IC50 [3, 14] | IC50 [4, 15] | IC50 [5, 16] | IC50 [6, 17] | IC50 [7, 18] | IC50 [1, 19] | IC50 [4, 20] | IC50 [5, 21] | IC50 [7, 22] | also measured
6-Bromo-4-[(4-pyrrolidin-1-ylmethyl-phenylamino)-methylene]-1,4-dihydro-2H-isoquinolin-3-one & 8-Bromo-4-[(4-pyrrolidin-1-ylmethyl-phenylamino)-methylene]-1,4-dihydro-2H-isoquinolin-3-one [Example 846] | – | – | – | – | – | – | – | – | – | – | – | IC50 ([1]; 3 days): 2.6 µM; IC50 [2, 8]: > 50 µM; IC50 [3, 9]: 2.5 µM; IC50 [4, 10]: 10.7 µM; IC50 ([5]; 3 days): 4.9 µM; IC50 [6, 11]: > 50 µM; IC50 ([7]; 3 days): 4.8 µM
6-Bromo-4-{[4-(4-methyl-piperazin-1-yl)-phenylamino]-methylene}-1,4-dihydro-2H-isoquinolin-3-one & 8-Bromo-4-{[4-(4-methyl-piperazin-1-yl)-phenylamino]-methylene}-1,4-dihydro-2H-isoquinolin-3-one [Example 845] | – | – | – | – | – | – | – | – | – | – | – | IC50 ([1]; 3 days): 4.2 µM; IC50 [2, 8]: > 50 µM; IC50 [3, 9]: 2.3 µM; IC50 [4, 10]: 7.5 µM; IC50 ([5]; 3 days): 4.5 µM; IC50 [6, 11]: > 50 µM; IC50 ([7]; 3 days): 2.5 µM
CC(O)C1CCCN1Cc1ccc(N/C=C2\C(=O)NC(=O)c3ccc(I)cc32)cc1 (single isomer, unassigned) [Example 374, 4-({4-[2-(1-Hydroxy-ethyl)-pyrrolidin-1-ylmethyl]-phenylamino}-methylene)-6-iodo-4H-isoquinoline-1,3-dione] | 3.2 µM | > 50 µM | 1.3 µM | 0.46 µM | 1 µM | 37.1 µM | 3.8 µM | – | – | – | – | –
CC1CN(C)[C@H](C)CN1c1ccc(N/C=C2\C(=O)NC(=O)c3ccc(I)cc32)cc1 (stereo in doubt) [Example 233, (4Z)-6-Iodo-4-[({4-[(2S,5R)-2,4,5-trimethylpiperazin-1-yl]phenyl}amino)methylene]-isoquinoline-1,3(2H,4H)-dione] | 5 µM | > 50 µM | 3 µM | 6.9 µM | 1 µM | > 50 µM | 4.4 µM | – | – | – | – | –
CN1CCN(CCN(C)c2ccc(NC=C3C(=O)NC(=O)c4ccc(Br)cc43)cc2)CC1 (stereo in doubt) [Example 261, (4Z)-6-Bromo-4-{[(4-{methyl[2-(4-methylpiperazin-1-yl)ethyl]amino}phenyl)amino]methylene}isoquinoline-1,3(2H,4H)-dione] | 3 µM | > 50 µM | 2.6 µM | 10 µM | 9.2 µM | > 50 µM | 10 µM | – | – | – | – | –
O=C1NC(=O)c2ccc(-c3ccsc3)cc2/C1=C/Nc1ccc(CN2CCC[C@@H]2CO)cc1 (stereo in doubt) [Example 421, 4-{[4-(2-Hydroxymethyl-pyrrolidin-1-ylmethyl)-phenylamino]-methylene}-6-thiophen-3-yl-4H-isoquinoline-1,3-dione] | – | > 50 µM | 0.05 µM | – | – | > 50 µM | – | 2.6 µM | 2.9 µM | 3.8 µM | 2.7 µM | –
O=C1NC(=O)c2ccc(I)cc2/C1=C/Nc1ccc(N2CCC[C@H]2CO)c(F)c1 (stereo in doubt) [Example 426, 4-{[3-Fluoro-4-(2-hydroxymethyl-pyrrolidin-1-yl)-phenylamino]-methylene}-6-iodo-4H-isoquinoline-1,3-dione] | – | > 50 µM | 10 µM | – | – | 31 µM | – | 1.6 µM | 4.5 µM | 2.8 µM | 2.2 µM | –
O=C1CC[C@@H](CN/C=C2\C(=O)NC(=O)c3ccc(I)cc32)N1 (stereo in doubt) [Example 427, 6-Iodo-4-{[(5-oxo-pyrrolidin-2-ylmethyl)-amino]-methylene}-4H-isoquinoline-1,3-dione] | – | > 50 µM | 2.1 µM | – | – | > 50 µM | – | 17.8 µM | 23.2 µM | 22.4 µM | 22.7 µM | –
O=C1NC(=O)c2ccc(Br)cc2/C1=C/Nc1ccc(CN2CCC[C@H]2CO)cc1 (stereo in doubt) [Example 437, 6-Bromo-4-{[4-(2-hydroxymethyl-pyrrolidin-1-ylmethyl)-phenylamino]-methylene}-4H-isoquinoline-1,3-dione] | – | > 50 µM | 0.75 µM | – | – | 36.3 µM | – | 3.7 µM | 2.9 µM | 3.1 µM | 3.6 µM | –
O=C1NC(=O)c2ccc(-c3cccs3)cc2/C1=C/Nc1ccc(CN2CCC[C@H]2CO)cc1 (stereo in doubt) [Example 438, 4-{[4-(2-Hydroxymethyl-pyrrolidin-1-ylmethyl)-phenylamino]-methylene}-6-thiophen-2-yl-4H-isoquinoline-1,3-dione] | – | > 50 µM | 0.04 µM | – | – | > 50 µM | – | 1.6 µM | 2.2 µM | 1.8 µM | 1.6 µM | –
CN1CCN(CCN(C)c2ccc(NC=C3C(=O)NC(=O)c4ccc(Br)cc43)cc2)CC1 (stereo in doubt) [Example 870, (4Z)-6-Bromo-4-{[(4-{methyl[2-(4-methylpiperazin-1-yl)ethyl]amino}phenyl)amino]methylene}isoquinoline-1,3(2H,4H)-dione] | – | – | – | – | – | – | – | 3 µM | 10.2 µM | 9.2 µM | 10.5 µM | IC50 ([2]; In Vitro Enzyme Assay, read-out: CDK1 IC50): > 50 µM; IC50 ([3]; In Vitro Enzyme Assay, read-out: CDK4 IC50): 2.6 µM; IC50 ([6]; In Vitro Enzyme Assay, read-out: CDK2 IC50): > 50 µM
O=C1NC(=O)c2ccc(Br)cc2/C1=C/NCc1cccc(O)c1 [Example 46] | 23 µM | > 50 µM | 0.033 µM | > 50 µM | > 50 µM | > 50 µM | 23 µM | – | – | – | – | –
O=C1NC(=O)c2ccc(-n3cccc3)cc2/C1=C/Nc1ccc(CN2CCCC2)cc1 [Example 72] | 3.4 µM | > 50 µM | 0.19 µM | 4.1 µM | 2.6 µM | > 50 µM | 3.4 µM | – | – | – | – | –
O=C1NC(=O)c2ccc(Br)cc2/C1=C/NCc1cc(O)c(O)c(O)c1 [Example 79] | > 50 µM | 42.6 µM | 0.026 µM | 37.7 µM | > 50 µM | 2.2 µM | 49.5 µM | – | – | – | – | –
COc1ccc(CN/C=C2\C(=O)NC(=O)c3ccc(-c4ccsc4)cc32)cc1O [Example 88, (4Z)-4-{[(3-Hydroxy-4-methoxybenzyl)amino]methylene}-6-thien-3-ylisoquinoline-1,3(2H,4H)-dione] | 3.4 µM | 23.3 µM | 0.002 µM | 6 µM | 9.1 µM | 18.3 µM | 2.4 µM | – | – | – | – | –
COc1ccc(CN/C=C2\C(=O)NC(=O)c3ccccc32)cc1O [Example 98, (4Z)-4-{[(3-Hydroxy-4-methoxybenzyl)amino]methylene}isoquinoline-1,3(2H,4H)-dione] | 17.9 µM | > 50 µM | – | 16.8 µM | 24.1 µM | 7.1 µM | 19.3 µM | – | – | – | – | IC50 ([3]; CDK4 IC50, In Vitro Enzyme Assays, 200 μM ATP): 0.21 µM
O=C1NC(=O)c2ccc(-c3ccsc3)cc2/C1=C/Nc1ccc(CN2CCCCC2)cc1 [Example 104, (4Z)-4-({[4-(Piperidin-1-ylmethyl)phenyl]amino}methylene)-6-thien-3-ylisoquinoline-1,3(2H,4H)-dione] | 1 µM | > 50 µM | 0.05 µM | 3 µM | 3.4 µM | > 50 µM | 1.3 µM | – | – | – | – | –
